Experimental findings from patent publication US20140349989A1, “COMPOUNDS AND THERAPEUTIC USES THEREOF” (Alzheimer's Institute of America, priority 2011, published 2014) are described below.

Where two headings read alike, the source gives them in different places.

One data set concerns the target T1, Human NAMPT (Homo sapiens, UniProt P43490).
T1 construct: 6xHis (N); made in house; host or cells: E. coli BL21-AI
As to the kind of experiment: Nampt Activity Assay (coupled enzyme fluorometric, resazurin/diaphorase). Format: biochemical. As to conditions: His-tagged human NAMPT, 3 μM NAM, 8 μM PRPP, room temperature up to 3 hours; read-out: in vitro IC50 (Nampt catalytic activity). From the text: 5-phosphoribosyl-1-pyrophosphate (PRPP), ATP, NaM, NaMN, Triton X-100, UDP-glucose and diaphorase were purchased from Sigma-Aldrich, St. Louis, Mo. Human NAMPT, NMN adenylyltransferase (NMNAT1) and UDP-glucose dehydrogenase (UGDH) encoding DNAs were each inserted into a house-modified E. Coli expression vector such that the expressed proteins carried an N-terminal 6×His tag. The His-tagged proteins were expressed in the BL21-AI E. Coli expression strain (Invitrogen Corporation, Carlsbad, Calif.) following induction by 0.2% L-arabinose and 0.5 mM IPTG at 30° C. Proteins were purified on Ni-NTA resin (Qiagen, Germantown, Md.).
The assay for Nampt catalytic activity was constructed based on a previously published coupled enzyme fluorometric technique, which employs NADH as ultimate analyte (Revollo, J. R. et al. Biol. Chem. 279, 50754-50763 (2004)). A substantial improvement in assay sensitivity was achieved by switching from direct detection to a resazurin/diaphorase-based fluorometric detection system for NADH (Guilbault, G. G., and Kramer, D. N. Anal. Chem. 37, 1219-1221 (1965)). The standard inhibition analyses were performed in a real-time mode in 96-well microtiter plates using 50 mM Tris-HCl, pH 7.5, 1% DMSO (v/v), 0.01% Triton X-100 (v/v), 10 mM MgCl2, 2 mM ATP, 3 μM NAM, 8 μM PRPP, […], as well as the following detection reagents: 5 nM Nmnat, 200 nM Ugdh, 200 μM UDP-glucose, 0.02 U/mL diaphorase and 0.25 μM resazurin. Incubation of samples at room temperature for up to 3 hours was followed by quantification of fluorescence intensities at excitation and emission wavelengths of 510 nm and 590 nm, respectively, using Gemini XS plate reader (Molecular Devices, Sunnyvale, Calif.). The counter-assay intended to disqualify false positives, such as inhibitors of detection enzymes or fluorescence quenchers, was carried out essentially as described above with an exception that 1 μM NaMN was substituted for Nampt.
In general terms: The colour change of resazurin is a common sign of viable cells or microbes.

The nature of data set [1]: Cytotoxicity Assay (HCT116, CellTiter-Glo). In kind it is cell-based. As to conditions: human. The method, boiled down: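 Cells settled overnight, then exposed to compound in DMSO for 72 h, optionally with nicotinic acid (10 μM final) added alongside. Viability read as CellTiter-Glo luminescence.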
A general note: Cellular ATP, detected with luciferase, serves as a proxy for viable cell number.

The mark [2] stands for this setting: HCT116 cells, 72 hours drug incubation, CellTiter-Glo luminescence, read-out: HCT116 cell cytotoxicity IC50.

T1 sequence (P43490 whole entry): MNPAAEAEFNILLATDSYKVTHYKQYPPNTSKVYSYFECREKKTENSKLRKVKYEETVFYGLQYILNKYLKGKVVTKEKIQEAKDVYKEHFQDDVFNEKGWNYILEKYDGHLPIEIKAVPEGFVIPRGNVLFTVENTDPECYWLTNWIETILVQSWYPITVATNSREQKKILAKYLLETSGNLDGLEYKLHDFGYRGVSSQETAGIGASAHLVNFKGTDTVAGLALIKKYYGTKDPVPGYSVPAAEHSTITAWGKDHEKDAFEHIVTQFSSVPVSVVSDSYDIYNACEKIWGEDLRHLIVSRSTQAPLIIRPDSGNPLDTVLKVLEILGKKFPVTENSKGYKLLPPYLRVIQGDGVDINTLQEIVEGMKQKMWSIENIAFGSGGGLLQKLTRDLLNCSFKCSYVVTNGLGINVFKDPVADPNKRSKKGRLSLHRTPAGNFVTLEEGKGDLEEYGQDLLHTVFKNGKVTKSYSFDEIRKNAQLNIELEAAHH

For `O=C(NCc1cccnc1)Nc1ccc(-n2ccc(C(=O)NCCN3CCCC3)n2)cc1` [Compound 1, 1-(4-{[(Pyridin-3-ylmethyl)carbamoyl]amino}phenyl)-N-[2-(pyrrolidin-1-yl)ethyl]-1H-pyrazole-3-carboxamide], the 50% inhibitory concentration (IC50) – broadly, the concentration that inhibits the measured activity by half – on Human NAMPT was ~10 nM.

`O=C(NCc1cccnc1)Nc1ccc(-n2nc(N3CCN(C4CCCC4)CC3)c3ccccc32)cc1` [Compound 109, 1-{4-[3-(4-Cyclopentyl-piperazin-1-yl)-1H-indazol-1-yl]phenyl}-3-(pyridin-3-ylmethyl)urea]: the IC50 at 72 h in data set [1] (HCT116 cell cytotoxicity IC50) was ~1 nM; in data set [1] (setting [2]), < 100 nM. The concentration for half-maximal inhibition (IC50) at Human NAMPT is ~1 nM. Regarding `O=C(NCc1cccnc1)Nc1ccc(-n2cc(C(=O)N3CC(N4CCNCC4)C3)c3ccccc32)cc1` [Compound 15, 1-[4-(3-{[3-(Piperazin-1-yl)azetidin-1-yl]carbonyl}-1H-indol-1-yl)phenyl]-3-(pyridin-3-ylmethyl)urea], the IC50 at 72 h in data set [1] (HCT116 cell cytotoxicity IC50) was ~60 nM. Besides, the 50% inhibitory concentration (IC50) at Human NAMPT was ~1 nM. As to `O=C(NCc1cccnc1)Nc1ccc(-c2nn(C3CN(C4CCCC4)C3)c3ccccc23)cc1` [Compound 33, 1-{4-[1-(1-Cyclopentyl-azetidin-3-yl)-1H-indazol-3-yl]phenyl}-3-(pyridin-3-ylmethyl)urea], the half-maximal inhibitory concentration (IC50) at 72 h in data set [1] (HCT116 cell cytotoxicity IC50) was ~1 nM; in data set [1] (setting [2]), < 100 nM. Further, the IC50 on Human NAMPT was < 1 nM. In the case of `O=C(NCc1cccnc1)Nc1ccc(-n2cc(C3CCNCC3)c3ccccc32)cc1` [Compound 29, 1-[4-[3-(4-piperidyl)indol-1-yl]phenyl]-3-(3-pyridylmethyl)urea], the 50% inhibitory concentration (IC50) at Human NAMPT is ~1 nM. On to `Cc1c(-c2ccccc2)c(C(=O)O)nn1-c1ccc(NC(=O)NCc2cccnc2)cc1` [Compound 119, 5-Methyl-4-phenyl-1-(4-{[(pyridin-3-ylmethyl)carbamoyl]amino}phenyl)-1H-pyrazole-3-carboxylic acid], for which the IC50 on Human NAMPT is ~2 nM. For the compound `CC(C)N1CCC2(CC1)CN(c1ccc(NC(=O)NCc3cccnc3)cc1)c1ccccc12` [Compound 61, 1-{4-[1′-(Propan-2-yl)spiro[indole-3,4′-piperidin]-1(2H)-yl]phenyl}-3-(pyridin-3-ylmethyl)urea], the 50% inhibitory concentration (IC50) at Human NAMPT is < 1 nM.

Consider `CCOC(=O)c1cn(CCCNC(=O)NCc2cccnc2)c2ccccc12` [Compound 106, Ethyl 1-(3-{[(pyridin-3-ylmethyl)carbamoyl]ami-no}propyl)-1H-indole-3-carboxylate], for which the IC50 at 72 h in data set [1] (setting [2]) was ≥ 100 nM. Take `Nc1nn(-c2ccc(NC(=O)NCc3cccnc3)cc2)c2ccccc12` [Compound 44, 1-[4-(3-aminoindazol-1-yl)phenyl]-3-(3-pyridylmethyl)urea]: in data set [1] (HCT116 cell cytotoxicity IC50), the half-inhibitory concentration (IC50) at 72 h was ≥ 100 nM.

With `O=C(NCc1cccnc1)Nc1ccc(-n2cc(C3CCN(CCF)CC3)c3ccccc32)cc1` [Compound 99, 1-(4-{3-[1-(2-Fluoroethyl)piperidin-4-yl]-1H-indol-1-yl}phenyl)-3-(pyridin-3-ylmethyl)urea], the 50% inhibitory concentration (IC50) at 72 h in data set [1] (setting [2]) is < 100 nM. The same measure, in the same setting: then `CN1CCC(c2cn(-c3ccc(NC(=O)NCc4cccnc4)cc3)c3ccccc23)CC1` [Compound 111, 1-{4-[3-(1-Methylpiperidin-4-yl)-1H-indol-1-yl]phenyl}-3-(pyridin-3-ylmethyl)urea], with < 100 nM; and `O=C(NCCCCn1cc(C(=O)N2CCC(N3CCCCC3)CC2)c2ccccc21)NCc1cccnc1` [Compound 57, 1-{4-[3-(1,4′-Bipiperidin-1′-yl-carbonyl)-1H-indol-1-yl]butyl}-3-(pyridin-3-ylmethyl) urea], with < 100 nM; and `CN1CCN(C2CCN(C(=O)c3cn(CCCCNC(=O)NCc4cccnc4)c4ccccc34)CC2)CC1` [Compound 115, 1-[4-(3-{[4-(4-Methylpiperazin-1-yl)piperidin-1-yl]carbonyl}-1H-indol-1-yl)butyl]-3-(pyridin-3-ylmethyl)urea], with < 100 nM. With `O=C(Cc1ccc(-n2nc(C(=O)N3CCC(N4CCCCC4)CC3)c3ccccc32)cc1)NCc1cccnc1` [Compound 183, 2-{4-[3-(1,4′-Bipiperidin-1′-ylcarbonyl)-1H-indazol-1-yl]phenyl}-N-(pyridin-3-ylmethyl)acetamide], the IC50 at 72 h in data set [1] (setting [2]) was < 100 nM.
